The structures appear in SMILES notation.

One assay addresses T1, V600E B-RAF (Homo sapiens, UniProt P15056, V600E).
T1 construct: MDRGSH6 (MDRGS-His6) (N); made in house; host or cells: SF9 insect cells (detergent soluble extract / lysate, not purified)
The assay is described as follows: BRAF V600E Kinase Assay. Type of assay: biochemical. The procedure:
B-raf kinase activity is measured using a 4-tiered cascade enzyme assay similar to that described by Marais R., et al., 1997, J. Biol. Chem., Vol. 272, pp. 4378-4383. B-Raf containing the V600E mutation (Davies, H., et al., 2002, Nature, Vol. 417, pp. 949-954) and an N-terminal MDRGSH6 tag is expressed in SF9 insect cells. Detergent soluble extracts from these cells are diluted 1:100 into an assay mixture containing GST-MEK-H6 (6.5 μg/ml) and GST-ERK-H6 (100 μg/ml) in a buffer containing 800 μM ATP and appropriate concentrations of inhibitor or diluent as control. The mixture is incubated for up to 10 minutes at 30° C. to activate the ERK in a B-Raf dependent manner within the cascade. […] The extent of activation of the GST-ERK is then determined by adding a portion of this quenched reaction mixture to a further reaction mixture containing MBP and 100 μM ATP/gamma [^32P]ATP. After 12 minutes' incubation at 30° C., the incorporation of [^32P] into the MBP substrate, as a measure of B-raf activity, is determined by precipitation with phosphoric acid and isolation by filtration on p81 phosphocellulose paper. […]
Alternatively, B-raf kinase activity is measured using a different 4-tiered cascade enzyme assay. […] The extent of activation of the GST-ERK is then determined by adding 0.033 μL (100 μM) HOT ^32Pα. […]
Compounds were assessed by a kinase assay performed according to the following protocol. […]

The test system of another assay is ppERK. The assay is described as follows: Phospho-ERK Cell-based Assay. The settings on record: cells incubated with test compound for 6 hours. The procedure:
Compounds were assessed using cell-based assays which were performed according to the following protocol.
Plate out 16,000 cells/well in 99 μL medium in a 96-well plate.
2. Incubate the cells with test compound for 6 hours at 37° C.
5. Add 50 μL of 3 μg/mL primary antibody ppERK (Sigma M8159), diluted in 5% milk powder/TBS, to each well.
13. Read Europium Time Resolved Fluorescence in Victor2.
Note that Europium counts are normalised for protein levels by dividing counts by absorbance.

A further assay relates to WM266.4 melanoma cells. The assay is described as follows: Cell proliferation (SRB) assay. In kind it is cell-based. The settings on record: Homo sapiens, WM 266-4, 144 h, 6 days growth. How it is done:
Cultures of WM266.4 melanoma cells are routinely cultured in DMEM/10% foetal bovine serum, at 37° C., in 5% CO2 water saturated atmosphere. Cultures are maintained in exponential growth phase by sub-culturing before having become confluent (3-5 day intervals). Single cell suspensions are prepared by harvesting an 80 cm^2 tissue culture flask with 5 mL commercial trypsin EDTA. After 5 minutes, the detached cells are mixed with 5 mL fully complemented culture medium and centrifugally pelleted (1000 rpm for 7 minutes). After aspirating the supernatant, the cell pellet is re-suspended in 10 mL fresh medium and the cells fully disaggregated by drawing the whole volume up/down 5 times through a 19-gauge needle. The concentration of the cells is determined using a haemocytometer (1/10 dilution). A suitable volume to give at least a 2-fold excess for the number of tests being conducted, typically 100-200 mL, is prepared by diluting the cell suspension to 10,000/mL, and 100 μL/well dispensed into 96 well plates using a programmable 8-channel peristaltic pump, giving 1000 cells/well, leaving column 12 blank. […] The absorbance at 540 nm in each well (being proportional to the number of cells present) is determined using a plate reader. After averaging the results in rows A-D and E-H, the blank value ([…]) is subtracted, and results expressed as percentage of the untreated value (row 11). […]

T1 sequence (P15056 whole entry V600E): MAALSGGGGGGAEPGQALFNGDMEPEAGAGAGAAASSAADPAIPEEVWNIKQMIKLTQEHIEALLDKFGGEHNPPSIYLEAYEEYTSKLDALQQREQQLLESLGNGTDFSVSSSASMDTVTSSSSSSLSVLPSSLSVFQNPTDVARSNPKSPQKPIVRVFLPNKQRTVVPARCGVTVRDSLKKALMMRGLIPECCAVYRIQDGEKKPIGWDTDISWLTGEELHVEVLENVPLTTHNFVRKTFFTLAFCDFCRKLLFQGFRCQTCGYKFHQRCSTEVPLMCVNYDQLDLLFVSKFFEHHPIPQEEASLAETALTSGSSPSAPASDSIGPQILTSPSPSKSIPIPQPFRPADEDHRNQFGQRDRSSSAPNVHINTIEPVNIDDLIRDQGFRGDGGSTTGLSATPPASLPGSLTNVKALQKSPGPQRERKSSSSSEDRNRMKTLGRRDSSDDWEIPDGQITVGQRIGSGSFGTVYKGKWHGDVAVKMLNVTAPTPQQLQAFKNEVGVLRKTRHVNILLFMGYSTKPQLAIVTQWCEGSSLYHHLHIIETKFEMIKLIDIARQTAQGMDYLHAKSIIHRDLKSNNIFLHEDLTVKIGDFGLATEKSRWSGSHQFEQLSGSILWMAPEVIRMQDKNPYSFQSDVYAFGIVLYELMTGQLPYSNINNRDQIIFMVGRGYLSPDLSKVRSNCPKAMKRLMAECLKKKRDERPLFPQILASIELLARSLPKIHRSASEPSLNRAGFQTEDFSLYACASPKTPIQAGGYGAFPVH

What is called IC50 is the concentration that gives 50% inhibition. Lower therefore signals higher potency. In the case of `O=C(Nc1cccc(Oc2ccnc3[nH]c(=O)[nH]c23)c1)Nc1ccc(Cl)c(C(F)(F)F)c1` [CJS 3678, 1-(4-Chloro-3-(trifluoromethyl)phenyl)-3-(3-(2-oxo-2,3-dihydro-1H-imidazo[4,5-b]pyridin-7-yloxy)phenyl)urea], the figures for the IC50 at V600E B-RAF, in the assay on ppERK and in the assay with WM266.4 melanoma cells were 0.015 µM, 10.7 µM and 4.2 µM, respectively.

Source of the values: patent publication US7951819B2, “Imidazo[4, 5-B]pyridin-2-one and oxazolo[4, 5-B] pyridin-2-one compounds and analogs thereof as cancer therapeutic compounds” (Cancer Research Technology Limited, priority 2006, dated 2011).
